Measured values published in patent US7655681B2, “Method of treating and diagnosing sleep disordered breathing and means for carrying out the method” (priority 2004, dated 2010).

What was measured:
[1] = tested on: three male patients with light to moderate/severe OSA; test: Uncontrolled repeated dosing study of zonisamide with polysomnography; assay type: in vivo, human; settings: for AHI, mean for all patients: baseline mean 30; for BMI, mean for all patients: baseline mean 32; for Sat. min, mean for all patients: baseline mean 84
Protocol: Uncontrolled repeated dosing of zonisamide. An uncontrolled study of three male patients (mean BMI at baseline 32) with light to moderate/severe OSA treated with zonisamide up to an average of 177 days was performed. Polysomnography (standard sleep montage, nasal pressure recording) was undertaken at baseline. Zonisamide therapy was started at 50 or 100 mg o.d. orally (Zonegran® capsules). […] A repeat sleep study (follow-up 1) was undertaken. A further sleep study (follow-up 2) was performed after 165, 218 and 149 days at doses of 400, 600 and 200 mg, respectively. The follow-up 2 measurements were thus performed at a pharmacokinetical steady-state.

[2] = cited from earlier work
[3] = tested on: patient with light to moderate OSA; test: Controlled repeated dosing, repeated withdrawal study of zonisamide with polysomnographic recording; assay type: in vivo, human; settings: for Sat <90%/hr (number of episodes reaching an oxygen saturation below 90% per hour of sleep): Day 0 baseline 4; for B-gluc (blood glucose concentration): Day 0 baseline 6.7; for CSAI (central sleep apnea index): Day 0 baseline 8; for AI (apnea index, number of obstructive apneas per hour of sleep): Day 0 baseline 16; for HI (hypopnea index, number of obstructive hypopneas per hour of sleep): Day 0 baseline 22; for BMI (body mass index): Day 0 baseline 26.5; for AHI (apnea/hypopnea index): Day 0 baseline 38; for MinSat (lowest oxygen saturation value reached during the sleep recording): Day 0 baseline 82; for DBP (diastolic blood pressure): Day 0 baseline 95; for SBP (systolic blood pressure): Day 0 baseline 165
Protocol: A controlled repeated dosing, repeated withdrawal study of zonisamide was undertaken in a patient (BMI 26.5) with light to moderate OSA (A/H index, 30 and 35 on previous screening). […] A baseline polysomographic recording (standard sleep montage, nasal pressure recording) was undertaken at baseline and zonisamide therapy was started at 100 mg o.d. orally (Zonegran® capsules) with an increase to 400 mg after two weeks and finally to 600 mg at the end of 12 weeks. Repeat sleep recordings were undertaken after 19 days (5 days on 400 mg) and after 90 days (6 days on 600 mg). The following key index data were recorded (Table 1).

[4] = follow-up 1, mean dose 200 mg, mean 33 days of treatment
[5] = follow-up 2, mean dose 400 mg, mean 177 days of treatment
[6] = patient two, early titration phase, 50 mg zonisamide, simplified sleep recording
[7] = Day 19 (5 days on 400 mg o.d. orally)
[8] = Day 90 (6 days on 600 mg orally)
[9] = during treatment, 100 to 600 mg orally
[10] = starting already after 10 days of treatment

## NS(=O)(=O)Cc1noc2ccccc12 [zonisamide, 1,2-benzisoxazole-3-methanesulfonamide]
[1]; dosing levels from below 100 mg up to 600 mg daily
  apnea reducing effect: potent apnea reducing effect
[1]; [4]
  AHI, mean for all patients: 25 per hour of sleep
  BMI, mean for all patients: 31 kg/m^2
  Sat. min, mean for all patients: 85
[1]; [5]
  AHI, mean for all patients: 22 per hour of sleep
  BMI, mean for all patients: 30 kg/m^2
  Sat. min, mean for all patients: 86
[1]; patient one, follow-up 1, dose 100 mg, 7 days of treatment, baseline 20
  AHI: 12 per hour of sleep
[1]; patient one, follow-up 1, dose 100 mg, 7 days of treatment, baseline 28.3
  BMI: 28.3 kg/m^2
[1]; patient one, follow-up 1, dose 100 mg, 7 days of treatment, baseline 88
  Sat. min (lowest oxygen saturation value reached during the sleep recording): 85
[1]; patient one, follow-up 2, dose 200 mg, 149 days of treatment, baseline 20
  AHI: 11 per hour of sleep
[1]; patient one, follow-up 2, dose 200 mg, 149 days of treatment, baseline 28.3
  BMI: 27.9 kg/m^2
[1]; patient one, follow-up 2, dose 200 mg, 149 days of treatment, baseline 88
  Sat. min (lowest oxygen saturation value reached during the sleep recording): 90
[1]; patient three, follow-up 1, dose 100 mg, 10 days of treatment, baseline 35.0
  BMI: 35.1 kg/m^2
[1]; patient three, follow-up 1, dose 100 mg, 10 days of treatment, baseline 57
  AHI: 59 per hour of sleep
[1]; patient three, follow-up 1, dose 100 mg, 10 days of treatment, baseline 79
  Sat. min (lowest oxygen saturation value reached during the sleep recording): 80
[1]; patient three, follow-up 2, dose 600 mg, 218 days of treatment, baseline 35.0
  BMI: 33.5 kg/m^2
[1]; patient three, follow-up 2, dose 600 mg, 218 days of treatment, baseline 57
  AHI: 53 per hour of sleep
[1]; patient three, follow-up 2, dose 600 mg, 218 days of treatment, baseline 79
  Sat. min (lowest oxygen saturation value reached during the sleep recording): 78
[1]; [6]
  AHI: 8
  BMI: 31.3
[1]; patient two, follow-up 1, dose 400 mg, 81 days of treatment, baseline 12
  AHI: 3 per hour of sleep
[1]; patient two, follow-up 1, dose 400 mg, 81 days of treatment, baseline 31.4
  BMI: 30.7 kg/m^2
[1]; patient two, follow-up 1, dose 400 mg, 81 days of treatment, baseline 86
  Sat. min (lowest oxygen saturation value reached during the sleep recording): 91
[1]; patient two, follow-up 2, dose 400 mg, 165 days of treatment, baseline 12
  AHI: 3 per hour of sleep
[1]; patient two, follow-up 2, dose 400 mg, 165 days of treatment, baseline 31.4
  BMI: 29.3 kg/m^2
[1]; patient two, follow-up 2, dose 400 mg, 165 days of treatment, baseline 86
  Sat. min (lowest oxygen saturation value reached during the sleep recording): 90
[1]; spontaneous reporting by the patients
  daytime sleepiness: overall positive effect
[1]; three patients, during treatment
  polysomnographically recorded sleep variables: not systematically affected
[1]; three patients, up to 600 mg, up to an average of 177 days
  side effects: No significant side effects were reported
[2]
  half-life in plasma: about 60 hrs
[3]; [7]
  Sat <90%/hr (number of episodes reaching an oxygen saturation below 90% per hour of sleep): <1 per hour of sleep
  B-gluc (blood glucose concentration): 6.4 mM
  CSAI (central sleep apnea index): 2 per hour of sleep
  AI (apnea index, number of obstructive apneas per hour of sleep): 4 per hour of sleep
  HI (hypopnea index, number of obstructive hypopneas per hour of sleep): 9 per hour of sleep
  BMI (body mass index): 26.4 kg/m^2
  AHI (apnea/hypopnea index): 13 per hour of sleep
  MinSat (lowest oxygen saturation value reached during the sleep recording): 89
  DBP (diastolic blood pressure): 89 mmHg
  SBP (systolic blood pressure): 155 mmHg
[3]; [8]
  Sat <90%/hr (number of episodes reaching an oxygen saturation below 90% per hour of sleep): 0 per hour of sleep
  B-gluc (blood glucose concentration): 5.9 mM
  CSAI (central sleep apnea index): 2 per hour of sleep
  AI (apnea index, number of obstructive apneas per hour of sleep): 2 per hour of sleep
  HI (hypopnea index, number of obstructive hypopneas per hour of sleep): 6 per hour of sleep
  BMI (body mass index): 25.6 kg/m^2
  AHI (apnea/hypopnea index): 8 per hour of sleep
  MinSat (lowest oxygen saturation value reached during the sleep recording): 90
  DBP (diastolic blood pressure): 85 mmHg
  SBP (systolic blood pressure): 145 mmHg
[3]; after zonisamide
  change in total sleep time: no clinically significant change
[3]; during the study period, up to 600 mg orally, 90 days
  side effects: No side effects were reported
[3]; [9]
  number of mixed events: decreased in proportion to the number of obstructive events
  polysomnographically recorded sleep variables: not systematically affected
[3]; obstructive and central events
  apnea reducing effect: potent apnea reducing effect
[3]; spontaneous reporting, already after 10 days of treatment
  daytime sleepiness: markedly reduced
[3]; [10]
  blood glucose concentration: gradually reduced
  blood pressure: gradually reduced
[3]; subjective and spouse reports, soon after onset of treatment
  nocturnal snoring episodes: clear reduction
